Measurements as given in patent US20140255301A1, “METHODS FOR DETECTING NEURODEGENERATIVE DISEASES OR DISORDERS” (priority 2010, published 2014).
Entries after “also recorded” stand apart in the source; their conditions may differ. Numbered stars: 1 amine (or outer) side, 2 acyl side, 3 side chain; on linkers, the order of the positions; unused ones are H or OH. Bridge positions count the residues as written; N and C are the ends. Square brackets hold non-standard residues; d marks the D form. Peptide text beside a SMILES is read from it. I, II: the chains in the order shown. Actinocin(9to1) = Cc1c2oc3c(C)ccc(C(=O)[*:1])c3nc-2c(C(=O)[*:2])c(N)c1=O; NMeV = CN[C@H](C(=O)O)C(C)C; Sar = CNCC(=O)O

Key:
[1] = tested on: axon degeneration of DRG neurons following NGF withdrawal; assay: Campenot chamber localized axon degeneration after NGF withdrawal (Tuj1 immunostaining); assay type: cell-based, mouse; details: for axon degeneration due to NGF deprivation, inhibitor applied to the axon (axon inhibition): inhibitor in axon compartment, 28 hours NGF deprivation of axons, anti-NGF antibody 50 μg/ml; for axon degeneration due to NGF deprivation, inhibitor applied to the cell body (cell body inhibition): inhibitor in cell body compartment with 25 ng/ml NGF, axons deprived of NGF
Protocol: Campenot chambers were used to perform the following experiments which allow for the separation of somal and axonal environments, and permit the induction of localized degeneration (see FIG. 1 and, e.g., Zweifel et al., Nat. Rev. Neurosci. 6(8):615-625, 2005). In such chambers, axon degeneration is localized and proceeds without apoptosis.
Mouse laminin (5 μg/ml in sterile filtered water; Invitrogen) was added to PDL coated 35 mm dishes (BD Biosciences) and they were incubated for 1 hour at 37° C., followed by two rinses in SQ water. The dishes were vacuum-dried and then air-dried in a laminar flow hood for 15 minutes. Prepared dishes were then scored with a pin rake (Tyler Research). Fifty microliters of NBM+MC solution containing NGF was applied across the resulting score tracks. The NBM+MC solution was made as follows: 1750 mg of methylcellulose was combined with 480 ml of Neurobasal (Invitrogen), to which was added 4.5 ml penicillin/streptomycin, 7.5 ml L-glutamine, and 10 ml B-27 serum-free supplement (Invitrogen). The solution was mixed for one hour at room temperature, overnight at 4° C., and one further hour at room temperature. The solution was then filter sterilized, and 50 ng/ml NGF (Roche) was added prior to use. High vacuum grease (VWR) was added to each Teflon divider under a dissection scope. The laminin coated PDL dishes were inverted and dropped onto the Teflon divider, with additional pressure added by use of a toothpick in the non-track-containing regions. Dishes were incubated for 1 hour at 37° C. Five hundred microliters of NBM+MC (50 ng/ml NGF) solution was added to each of the side compartments, and a grease barrier was added in front of the center cell slot.
Free E13.5 spinal cords were dissected from mouse embryos and placed into NBM+MC (25 ng/ml NGF) solution. DRGs were detached from the spinal cord with a tungsten needle. An NBM+MC-lubricated P200 pipette was used to move DRGs into a 1.5 ml tube. DRGs were pelleted with a tabletop centrifuge for 30 seconds. The supernatant was discarded and 0.05% Trypsin/EDTA (cold) was added. The pellet was resolubilized with a pipette and incubated at 37° C. for 15 minutes with constant agitation (650 RPM). The sample was again centrifuged and the supernatant discarded. The pellet was resuspended in warm NBM+MC (50 ng/ml NGF) solution and triturated with a flamed glass pipette 20 times, followed by trituration with a fire-bored glass pipette another 20 times. The samples were again centrifuged and the resulting pellets were resuspended in 0.5 ml NBM+MC (50 ng/ml NGF) solution. The cells were diluted to a final concentration of 2.5×10^6 cells/ml. The cell suspensions were loaded into a 1 ml syringe with a 22 gauge needle. The center slot of the Campenot divider was filled using the syringe (to a volume of at least 50 μl). The Campenot chamber was incubated overnight at 37° C. 2.5 ml NGF+MC (50 ng/ml NGF) solution was added to the center compartment and the grease gate was removed. The outer medium (cell body compartment) was replaced after three days with 2.5 ml NBM+MC medium (with 25 ng/ml NGF).
After five days in culture, the axonal compartment was washed three times with warmed NBM+MC (no NGF) solution. After the third wash, 500 μl NBM+MC (no NGF) solution was added to the axon compartment in combination with either 0.5% DMSO or an inhibitor. The cell body compartment was replaced with 2.5 ml NBM+MC medium (with 25 ng/ml NGF) containing either 0.5% DMSO or inhibitor. Fifty μg/ml anti-NGF antibody was added to the axonal compartment. Another axon compartment was maintained in NGF as a control.
After 28 hours of NGF deprivation for axons, and 25 hours of NGF deprivation for cell bodies, 8% PFA/30% sucrose solution was added directly to the culture medium at a 1:1 dilution and incubated for 30 minutes. The Teflon divider was removed after the first 15 minutes of addition. […]

[2] = tested on: dleu2 and tbx6 expression; assay: Time course microarray analysis of neurons in Campenot chambers undergoing axon loss; assay type: cell-based, mouse; details: 30 μM inhibitor in outer compartment, NGF deprivation for 6 and 12 hours
Protocol: Based on the experiments described above, glycogen synthase kinase-3 (GSK-3) was identified as being a regulator of a genetic axon degeneration program acting specifically in the cell body to regulate distal axon degeneration. To identify GSK3 regulated axon degeneration genes, time course microarray analysis was performed on neurons selectively undergoing […], with or without GSK-3 inhibition.
Briefly, neurons were isolated and cultured in Campenot chambers as previously described. Campenot chambers were set up with 50 μM 5-fluoro-2′-deoxyuridine/uridine (both Sigma) added to the culture medium to reduce contamination by non-neuronal cells. On day 5, both axon compartments were washed three times with NGF-free medium and on the fourth wash, replaced with medium containing NGF (control) or NGF antibodies (50 μg/ml) (911, Genetech). The outer compartment was replaced with medium containing 30 μM of the GSK3 inhibitor ARA (EMD Biosciences) or 0.3% DMSO. RNA was extracted from neurons with or without GSK3 ARA treatment which had been cultured with NGF or deprived of NGF for 6 and 12 hours. RNA was prepared with Trizol® (Invitrogen) followed by the RNeasy® Micro Kit processing with DNAse I treatment (Qiagen) as described in Appendix C of the RNeasy® Micro Kit manual. For each condition, five Agilent Whole Mouse Genome microarray chips were used with single amplification.

SMILES | axon degeneration due to NGF deprivation, inhibitor applied to the axon (axon inhibition) [1] | axon degeneration due to NGF deprivation, inhibitor applied to the axon (axon inhibition) ([1]; listed as actinomycin D) | axon degeneration due to NGF deprivation, inhibitor applied to the cell body (cell body inhibition) [1] | axon degeneration due to NGF deprivation, inhibitor applied to the cell body (cell body inhibition) ([1]; listed as actinomycin D) | overexpression of dleu2 and tbx6 in neurons deprived of NGF [2] | overexpression of dleu2 and tbx6 in neurons deprived of NGF ([2]; listed as GSK3.ARA)
Cc1c2oc3c(C)ccc(C(=O)N[C@@H]4C(=O)N[C@H](C(C)C)C(=O)N5CCC[C@H]5C(=O)N(C)CC(=O)N(C)[C@@H](C(C)C)C(=O)O[C@@H]4C)c3nc-2c(C(=O)N[C@@H]2C(=O)N[C@H](C(C)C)C(=O)N3CCC[C@H]3C(=O)N(C)CC(=O)N(C)[C@@H](C(C)C)C(=O)O[C@@H]2C)c(N)c1=O [Act D, actinomycin D] (I: T[dV]P[Sar][NMeV] / II: T[dV]P[Sar][NMeV]; ester I:1-I:C, II:1-II:C; linker I:N-II:N via Actinocin(9to1)) | did not prevent axonal degradation | did not provide the same protective effect | axon degradation due to NGF deprivation was reduced | prevented axonal degeneration | – | –
N#C/C(=C\c1ccc(O)c(O)c1)C(=O)NCCCc1ccccc1 [AG555] | exhibited less degeneration; also recorded: prevented axonal degradation | – | failed to prevent degeneration; also recorded: did not provide the same protective effect | – | – | –
COc1ccc(CNC(=O)Nc2ncc([N+](=O)[O-])s2)cc1 [GSK3 ARA] | – | – | – | – | overexpression of these genes is not observed at any time point | Increased expression of dleu2 and tbx6 is not observed
O=C1NC(=O)C(c2ccccc2[N+](=O)[O-])=C1Nc1ccc(O)c(Cl)c1 [SB415] | did not prevent axonal degradation; also recorded: did not provide the same protective effect | – | axon degradation due to NGF deprivation was reduced; also recorded: prevented axonal degeneration | – | – | –
COc1nccc(-c2c(-c3ccc(F)cc3)ncn2C2CCC(O)CC2)n1 (stereo not drawn) [SB239] | exhibited less degeneration; also recorded: prevented axonal degradation | – | failed to prevent degeneration; also recorded: did not provide the same protective effect | – | – | –
